This note sets out measurements from ChEMBL document CHEMBL1153295, “Stereoselective synthesis of 15- and 16-substituted isosteviol derivatives and their cytotoxic activities” (Bioorg Med Chem Lett, 2009).

Experiment [1] has as its system B16-F10. The experiment can be described thus: Cytotoxicity against mouse B16F10 cells at 100 uM after 48 hrs by MTT assay. Format: functional. Background: Tetrazolium dyes change colour on reduction, which living cells bring about.
The test system of experiment [2] is B16-F10. The experiment can be described thus: Cytotoxicity against mouse B16F10 cells after 48 hrs by MTT assay. The experiment is classed as functional, cell-based. The note with it: B16-F10, 48 h.

A word on the inhibition: it is the percentage by which the read-out fell short of the control. Broadly, the IC50 is the point on the concentration scale where inhibition reaches its midpoint.

Molecules are shown by their SMILES. Activity calls are given as the source filed them. The rule behind the calls is not given here.

On to `C=CC(=O)O[C@@H]1C[C@]23CC[C@H]4[C@@](C)(CCC[C@@]4(C)C(=O)OCC)[C@@H]2CC[C@@]1(C)C3`, for which, in the experiment with B16-F10 [1], the inhibition entry was “inactive”.

For the compound `C=C[C@]12CC[C@H]3[C@@](C)(CCC[C@@]3(C)C(=O)OCC)[C@@H]1CC[C@](C)(C(=O)O)C2`, in the experiment with B16-F10 [1], the inhibition entry is “inactive”.

With `C[C@]12CC[C@H]3[C@]4(C)CCC[C@@](C)(C(=O)O)[C@H]4CC[C@@]3(C1)[C@H](CO)[C@H]2O`, the inhibition result in the experiment on B16-F10 [1] was “inactive”.

`C=C[C@]12CC[C@H]3[C@@](C)(CCC[C@@]3(C)C(=O)OCC)[C@@H]1CC[C@](C)(CN)C2` yielded an inhibition at 100 µM with B16-F10 [1] (B16-F10, 48 h) of 34.3%.

Regarding `CCOC(=O)[C@]1(C)CCC[C@@]2(C)[C@@H]3CC[C@@]4(C)C[C@]3(CC[C@@H]21)[C@H](COC(=O)c1cccnc1)[C@H]4OC(=O)c1cccnc1`, the IC50 in the experiment with B16-F10 [2] came to 22 µM.

In the experiment with B16-F10 [2], `C=C[C@]12CC[C@H]3[C@@](C)(CCC[C@@]3(C)C(=O)OCC)[C@@H]1CC[C@](C)(CO)C2` registered an IC50 of 24 µM.

As to `C=C[C@]12CC[C@H]3[C@@](C)(CCC[C@@]3(C)C(=O)OCC)[C@@H]1CC[C@](C)(C=N)C2`, it took 27.5 µM to reach half-maximal inhibition in the experiment on B16-F10 [2] (IC50).

As to `CCOC(=O)[C@]1(C)CCC[C@@]2(C)[C@@H]3CC[C@@]4(C)C[C@]3(CC[C@@H]21)[C@H](CO)[C@H]4O`, in the experiment on B16-F10 [2], the IC50 was 68 µM.

Take `CCOC(=O)[C@]1(C)CCC[C@@]2(C)[C@@H]3CC[C@@]4(C)C[C@]3(CC[C@@H]21)[C@H](CO[N+](=O)[O-])[C@H]4O[N+](=O)[O-]`: the inhibition entry in the experiment on B16-F10 [1] was “inactive”.

Take `CCOC(=O)[C@]1(C)CCC[C@@]2(C)[C@@H]3CC[C@@]4(C)C[C@]3(CC[C@@H]21)[C@@H]1CN(c2ccc([N+](=O)[O-])cc2)N=C14`: in the experiment with B16-F10 [2], 21 µM corresponded to half-maximal inhibition (IC50).

Turning to `C=C[C@]12CC[C@H]3[C@@](C)(CCC[C@@]3(C)C(=O)OCC)[C@@H]1CC[C@](C)(C=O)C2`, the inhibition entry in the experiment with B16-F10 [1] is “inactive”.

`C[C@@]12CC[C@@H]3[C@@](CC[C@H]4[C@@]3(C)CCC[C@@]4(C)C(=O)O)(CC1=O)C2`: in the experiment on B16-F10 [1], the inhibition entry is “inactive”.

`C=C[C@]12CC[C@H]3[C@@](C)(CCC[C@@]3(C)C(=O)OCC)[C@@H]1CC[C@](C)(O)C2` gave an IC50 with B16-F10 [2] of 26 µM.

Consider `CCOC(=O)[C@]1(C)CCC[C@@]2(C)[C@@H]3CC[C@@]4(C)C[C@]3(CC[C@@H]21)[C@@H]1CON(C)[C@@H]14`, for which the inhibition entry with B16-F10 [1] is “inactive”.

For the compound `CCOC(=O)[C@]1(C)CCC[C@@]2(C)[C@@H]3CC[C@@]4(C)C[C@]3(CC[C@@H]21)c1cn(-c2ccccc2)nc14`, inhibition in the experiment on B16-F10 [2] was half-maximal at 19 µM (IC50).

On to `CCOC(=O)[C@]1(C)CCC[C@@]2(C)[C@@H]3CC[C@@]4(C)C[C@]3(CC[C@@H]21)CC4=O`, for which the inhibition result in the experiment on B16-F10 [1] was “inactive”.

In the case of `CCOC(=O)[C@]1(C)CCC[C@@]2(C)[C@@H]3CC[C@@]4(C)C[C@]3(CC[C@@H]21)[C@@H]1CON[C@@H]14`, the IC50 with B16-F10 [2] worked out at 15 µM.

Regarding `C[C@@]12CC[C@@H]3[C@@](CC[C@H]4[C@@]3(C)CCC[C@@]4(C)C(=O)O)(C[C@H]1O)C2`, the inhibition result in the experiment on B16-F10 [1] was “inactive”.

Regarding `CCOC(=O)[C@]1(C)CCC[C@@]2(C)[C@@H]3CC[C@@]4(C)C[C@]3(CC[C@@H]21)C[C@H]4O`, in the experiment with B16-F10 [2], half-maximal inhibition (IC50) required 58 µM.

`CCOC(=O)[C@]1(C)CCC[C@@]2(C)[C@@H]3CC[C@@]4(C)C[C@]3(CC[C@@H]21)[C@H](COC(=O)c1cccnc1)[C@H]4O` had an IC50 in the experiment on B16-F10 [2] of 25 µM.

Consider `CCOC(=O)[C@]1(C)CCC[C@@]2(C)[C@@H]3CC[C@@]4(C)C[C@]3(CC[C@@H]21)[C@@H]1CO[C@H]4O1`, for which the inhibition entry in the experiment with B16-F10 [1] is “inactive”.
